Reference: patent publication US9212204B2, “Treatment of rett syndrome using glycyl-L-2-methylprolyl-L-glutamic acid” (priority 2011, dated 2015)
Non-standard residues stand in square brackets, D forms with d. Residues, ends and D or L forms follow the SMILES beside them. αMeP = C[C@@]1(C(=O)O)CCCN1

What was measured:
[1] = tested on: slices of hippocampus from MeCP2 deficient mice; experiment: Hippocampal long-term potentiation in MeCP2 deficient mice; assay type: in vivo, mouse; conditions: 20 mg/kg/day i.p. from week 4 to week 9; vs saline
From the text: MeCP2 deficient mice have been previously reported to suffer from functional and ultrastructural synaptic dysfunction, significant impairment of hippocampus-dependent memory and hippocampal long-term potentiation (LTP) (Moretti et al. The Journal of Neuroscience. 2006. 26(1):319-327). To test the effects of the G-2-MePE treatment on synaptic function in the RTT model we compared hippocampal LTP in both vehicle and G-2-MePE treated animals at 9 weeks of age. To do so, we measured the slope of the fEPSP as a % of baseline potential in neurons in slices of hippocampus from MeCP2 deficient mice treated with either saline or G-2-MePE (FIG. 23).

[2] = tested on: animals with penetrating ballistic injury; conditions: pTBI; cited from earlier work
[3] = tested on: neurons in the CA3 region of the hippocampus; experiment: Neuron soma size in the hippocampus; assay type: in vivo, mouse
Procedure: We also measure the effect of G-2-MePE treatment on neuron soma size in the hippocampus. Mice are treated with G-2-MePE as described above for locomotor activity.

[4] = tested on: animals with hypoxic-ischemic injuries caused by middle cerebral artery occlusion; conditions: MCaO; cited from earlier work
[5] = tested on: PCNA positive cells in the subventricular zone (SVZ); experiment: PCNA staining, neuroblast proliferation in the subventricular zone; assay type: in vivo, rat; conditions: for number of PCNA positive cells in the SVZ: 3 days after treatment
Procedure: To carry out these studies, tissues were fixed and embedded in paraffin and sections obtained using standard methods. Coronal sections (6 μm) containing the level of the hippocampus were cut and mounted on chrome-alum-coated slides for staining. The sections were deparaffinized in xylene, dehydrated in a series of ethanol and incubated in 0.1 M phosphate buffered saline (PBS).
Primary antibodies against glial fibrillary acidic protein (GFAP) and proliferating cell nuclear antigen (PCNA) were used to mark reactive glial cells and cells undergoing apoptosis and proliferation, respectively. For antigen unmasking (caspase-3 and PCNA staining), sections were heated in 10 mM sodium citrate buffer (pH 6.0) for 1 min at high power. All sections were pretreated with 1% […] in 50% methanol for 30 min to quench the endogenous peroxidase activity. Then either 1.5% normal horse serum or 2.5% normal sheep serum in PBS was applied for 1 h at room temperature to block nonspecific background staining. The sections were then incubated with following primary antibodies: monoclonal mouse anti-GFAP antibody (Sigma, St. Louis, Mo., U.S.A. diluted 1:500); mouse anti-PCNA antibody (DAKA, A/S, Denmark, diluted 1:100). After incubation with primary antibodies at 4° C. for 2 d (except for PCNA staining which was incubated overnight) the sections were incubated with biotinylated horse anti-mouse or goat anti-rabbit secondary antibody (1:200, Sigma) at 4° C. overnight. The ExtrAvidin™ (Sigma, 1:200), which had been prepared 1 h before use, was applied for 3 h at room temperature, and then reacted in 0.05% 3,3-diaminobenzidine (DAB) and PBS to produce a brown reaction product. Sections were dehydrated in a series of alcohols to xylene and coverslipped with mounting medium.
Immunohistochemical staining was performed on brain samples taken from both control and G-2-MePE treated groups of young (4 months old), middle-aged (9 months old) and aged rats (18 months old).
Control sections were processed in the same way except the primary antibody was omitted from the incubation solution. The number of PCNA positive cells was counted in the subventricular zone and the GFAP positive cells was scored in the cerebral cortex.
The subventricular zone (SVZ) and the dentate gyrus (DG) are two brain regions hosting adult neurogenesis. […]
Eighteen month old male rats were treated intraperitoneally with single does of G2-MePE (doses of either 0, 0.012, 0.12. 1.2, 12 mg/kg). […] The number of PCNA positive cells was counted in the SVZ and the number of cells was then averaged as cells/mm depending on the length of ventricle wall used for counting (FIG. 19A). […]

## C[C@@]1(C(=O)N[C@@H](CCC(=O)O)C(=O)O)CCCN1C(=O)CN [Example G-2-MePE, Glycyl-L-2-methylprolyl-L-glutamic acid] (H-Gly-[αMeP]-Glu-OH)
[1]
  slope of fEPSP (hippocampal LTP): increased
[2]
  neuroinflammation: inhibits
[3]; KO animals
  average soma size: increases
[3]; wild type animals
  soma size: little or no effect
[4]
  non-convulsive seizures (NCS): inhibit
[5]; 1.2 mg/kg i.p., 9 month old rats, p<0.005
  number of PCNA positive cells in the SVZ: significant increase
[5]; 0.012-12 mg/kg single i.p. dose, 18 month old rats
  dose dependence of effect on neurogenesis: dose-dependent effect
[5]; 12 mg/kg single i.p. dose, 18 month old rats, vs vehicle p<0.05
  number of PCNA positive cells in the SVZ: significant increase
[5]; highest dose, vs vehicle treated rat, FIG. 19B
  PCNA and doublecortin staining: increase
